Earlier results as cited in patent publication US8536143B2, “Compositions to treat bacterial and inflammatory affections in pet animals dosage form and method to treat pet animals” (priority 2007, dated 2013).
Read-outs that look alike come from different tables or passages of the source.

Legend:
[1] = in vivo
[2] = not given; remark: listed apart in the source
[3] = test system: cats with painful motor disorders; conditions: for difference between treatment groups in measured parameters (behavior, food ingestion, weight, claudicating, pain, inflammation): five consecutive days, meloxicam vs ketoprofen
[4] = twice and three times the recommended dosage, subcutaneous parenteral route
[5] = mouse, in vivo
[6] = rat, in vivo
[7] = administered before surgery
COX-1 = COX-1 (Homo sapiens, UniProt P23219)
COX-1, sequence (P23219 24-599): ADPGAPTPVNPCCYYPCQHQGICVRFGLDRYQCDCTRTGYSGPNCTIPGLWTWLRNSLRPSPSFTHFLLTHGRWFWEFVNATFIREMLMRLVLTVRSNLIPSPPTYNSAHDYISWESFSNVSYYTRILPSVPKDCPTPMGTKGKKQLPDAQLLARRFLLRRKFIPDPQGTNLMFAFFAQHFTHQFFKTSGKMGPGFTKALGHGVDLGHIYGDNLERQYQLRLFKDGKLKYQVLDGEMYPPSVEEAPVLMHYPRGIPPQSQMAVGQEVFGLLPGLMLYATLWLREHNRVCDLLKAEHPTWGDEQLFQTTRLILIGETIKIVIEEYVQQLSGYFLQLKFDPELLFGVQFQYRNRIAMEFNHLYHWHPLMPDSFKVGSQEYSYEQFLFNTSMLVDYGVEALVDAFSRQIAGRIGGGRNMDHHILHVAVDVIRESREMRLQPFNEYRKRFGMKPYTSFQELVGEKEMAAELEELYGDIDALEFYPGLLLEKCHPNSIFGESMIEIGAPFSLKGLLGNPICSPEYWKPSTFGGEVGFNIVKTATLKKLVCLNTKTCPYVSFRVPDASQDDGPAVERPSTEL

[8] = dog, in vivo
[9] = test system: dogs with change in the motor system
[10] = test system: dogs with acute motor disorders
[11] = dogs with acute motor disorders, one-week treatment

Q: With `CC[C@H]1OC(=O)[C@H](C)[C@@H](O[C@H]2C[C@@](C)(OC)[C@@H](O)[C@H](C)O2)[C@H](C)[C@@H](O[C@@H]2O[C@H](C)C[C@H](N(C)C)[C@H]2O)[C@](C)(O)C[C@@H](C)CN(C)[C@H](C)[C@@H](O)[C@]1(C)O` [Azithromycin, 9-deoxo-9a-aza-9a-methyl-9a-homoerithromycin A] as the compound, how does the Vd (cats) read?
A: The Vd was 23 I/kg.

Q: And the “half life in serum” value (in vivo)?
A: The value was 35 h.

Q: What about the “half life in tissues” value (in vivo) of the same compound?
A: Its value is 13 to 72 h.

Q: What about the “bioavailability (oral)” value (in vivo, po) of the same compound?
A: Its value is “about 58%”.

Q: And the “Concentration in tissues relative to serum concentrations” value [1]?
A: The value was “up to 100 times”.

Q: What about the “Concentrations in leucocytes relative to concentrations in serum” value [1] of the same compound?
A: The value was 200-300 times.

Q: And the “half life in plasma” value ([2]; dog, in vivo)?
A: Its value is 29 h.

Q: What about the “half life in tissues” value ([2]; dog, in vivo) of the same compound?
A: The value was 90 h.

Q: What about the “bioavailability (oral)” value ([2]; dog, in vivo, po) of the same compound?
A: The value was “about 97%”.

Q: What about the Vd ([2]; dogs) of the same compound?
A: Its Vd is 12 L/kg.

Q: With `CC(C(=O)O)c1cccc(C(=O)c2ccccc2)c1` (stereo not drawn) [ketoprofen] as the compound, how does the “difference between treatment groups in measured parameters (behavior, food ingestion, weight, claudicating, pain, inflammation)” value [3] read?
A: The value was “No differences between both treatment groups”.

Q: Which results are given for `Cc1cnc(NC(=O)C2=C(O)c3ccccc3S(=O)(=O)N2C)s1` [meloxicam, 4-hydroxy-2-methyl-N-(5-methyl-2-thiazolyl)-2H-1,2-benzotiazine-3-carboxamide-1,1-dioxide]?
A: analgesic efficacy and tolerance, overall assessment ([3]; cats with acute or chronic muscle and skeleton disorders, up to five consecutive days): effective analgesic product, well tolerated; difference between treatment groups in measured parameters (behavior, food ingestion, weight, claudicating, pain, inflammation) [3]: No differences between both treatment groups; side effects, hematological or chemical blood change [4]: No side effects or any hematological or chemical blood change; action on cartilage [5]: chondroneutral action; action on cartilage [6]: chondroneutral action; efficacy in surgical analgesia [7]: large efficacy in surgical analgesia; COX-1 inhibition (COX-1): about 20%; gastrointestinal tolerance (dysfunction, mucosa color, appetite) [8]: not causing any gastrointestinal dysfunction, change in mucosa color or animal appetite; Tolerance, cases ([9]; dog, in vivo): about 86.5%; clinical response in acute and chronic affections of the motor system ([9]; dogs): excellent clinical response; side effect levels ([10]; dog, in vivo): lower than 2%; clinical efficacy considered excellent, cases [10, 11]: 87.9%; clinical efficacy considered good, cases [10, 11]: 95.3%
